Literature values as cited in patent publication US6797704B2, “Systemic delivery of compounds through non-invasive bladder administration” (The Johns Hopkins University, priority 2000, dated 2004).
One block for each molecule: values may come before it.

Tests used:
[1] = men
murine lung tumors = details: co-injection with naked DNA; from more than 250

systemic absorption following intravesical administration [1]: minimal
Molecule: COc1cccc2c1C(=O)c1c(O)c3c(c(O)c1C2=O)C[C@@](O)(C(=O)CO)C[C@@H]3O[C@H]1C[C@H](N)[C@H](O)[C@H](C)O1 [doxorubicin]

B1: recombinant murine interleukin-12: cytokine co-injected with naked DNA in a literature lung tumor study (protein, UniProt P43431 23-215; P43432 23-335, looked up)
Interleukin-12 subunit alpha: RVIPVSGPARCLSQSRNLLKTTDDMVKTAREKLKHYSCTAEDIDHEDITRDQTSTLKTCLPLELHKNESCLATRETSSTTRGSCLPPQKTSLMMTLCLGSIYEDLKMYQTEFQAINAALQNHNHQQIILDKGMLVAIDELMQSLNHNGETLRQKPPVGEADPYRVKMKLCILLHAFSTRVVTINRVMGYLSSA
Interleukin-12 subunit beta: MWELEKDVYVVEVDWTPDAPGETVNLTCDTPEEDDITWTSDQRHGVIGSGKTLTITVKEFLDAGQYTCHKGGETLSHSHLLLHKKENGIWSTEILKNFKNKTFLKCEAPNYSGRFTCSWLVQRNMDLKFNIKSSSSSPDSRAVTCGMASLSAEKVTLDQRDYEKYSVSCQEDVTCPTAEETLPIELALEARQQNKYENYSTSFFIRDIIKPDPPKNLQMKPLKNSQVEVSWEYPDSWSTPHSYFSLKFFVRIQRKKEKMKETEEGCNQKGAFLVEKTSTEVQCKGGNVCVQAQDRYYNSSCSKWACVPCRVRS
number of primary lung metastases (murine lung tumors): around 10
